Measured values: patent publication US7354588B1, “Functional derivatives of ICAM-1 with altered ability to bind LFA-1 or HRV” (Dana Farber Cancer Institute, priority 1987, dated 2008)
*1 amine or outer side, *2 acyl side, *3 side chain or, on linkers, in order; H or OH if unused. Where a SMILES comes first, the peptide text is derived from it. Bridges are numbered along the chain shown (N, C = ends). Roman numbers before positions name the chains, in order. [ ]: non-standard residue; d: D form. Actinocin(9to1) = Cc1c2oc3c(C)ccc(C(=O)[*:1])c3nc-2c(C(=O)[*:2])c(N)c1=O; NMeV = CN[C@H](C(=O)O)C(C)C; Sar = CNCC(=O)O

How the values were obtained:
[1] = system: JY cells (LFA-1 dependent aggregation); experiment: Qualitative aggregation assay (microtiter plate), PMA-induced JY cell aggregation; assay type: cell-based, human
Protocol: In order to assess the extent of cellular adhesion, aggregation assays were employed. Cell lines used in such assays were washed two times with RPMI 1640 medium containing 5 mM Hepes buffer (Sigma Chemical Co., St. Louis) and resuspended to a concentration of 2×10^6 cells/ml. Added to flat-bottomed, 96-well microtiter plates (No. 3596; Costar, Cambridge, Mass.) were 50 μl of appropriate monoclonal antibody supernatant or 50 μl of complete medium with or without purified monoclonal antibodies, 50 μl of complete medium containing 200 ng/ml of the phorbol ester phorbol myristate acetate (PMA) and 100 μl of cells at a concentration of 2×10^6 cells/ml in complete medium. This yielded a final concentration of 50 ng/ml PMA and 2×10^5 cells/well. Cells were allowed to settle spontaneously, and the degree of aggregation was scored at various time points. […] In order to obtain a more quantitative estimate of cellular adhesion, reagents and cells were added to 5 ml polystyrene tubes in the same order as above. Tubes were placed in a rack on a gyratory shaker at 37° C. After 1 hour at approximately 200 rpm, 10 μl of the cell suspension was placed in a hemocytometer and the number of free cells was quantitated. Percent aggregation was determined by the following equation: […]
The qualitative aggregation assay described in Example 2 was performed using the Epstein-Barr transformed cell line JY. […]

[2] = system: human peripheral blood mononuclear cells (responder and irradiated stimulator cells); experiment: Mixed lymphocyte reaction (MLR), ^3HT incorporation; assay type: cell-based; conditions: Table 19, R × S, R6-5-D6 8 ng/ml, Dex 50 ng/ml
[3] = system: ICAM-1 expression on human dermal fibroblasts; experiment: ^125I goat anti-mouse IgG binding assay, anti-ICAM-1, dermal fibroblasts; assay type: cell-based
Protocol: (§1) The kinetics of interleukin 1 and gamma interferon effects on ICAM-1 expression on dermal fibroblasts were determined using the ^125I goat anti-mouse IgG binding assay of Dustin, M. L. et al. (J. Immunol. 137:245-254 (1986); which reference is herein incorporated by reference). To perform this binding assay, human dermal fibroblasts were grown in a 96-well microtiter plate to a density of 2−8×10^4 cells/well (0.32 cm^2). The cells were washed twice with RPMI 1640 medium supplemented as described in Example 1. The cells were additionally washed once with Hanks Balanced Salt Solution (HBSS), 10 mM HEPES, 0.05% NaN3 and 10% heat-inactivated fetal bovine serum. Washing with this binding buffer was done at 4° C. To each well was added 50 μl of the above-described binding buffer and 50 μl of the appropriate hybridoma supernatant with X63 and W6/32 as the negative and positive controls, respectively. After incubation for 30 minutes at 4° C., with gentle agitation, the wells were washed twice with binding buffer, and the second antibody ^125I-goat anti-mouse IgG, was added at 50 nCi in 100 μl. The ^125I-goat anti-mouse antibody was prepared by using Iodogen (Pierce) according to the method of Fraker, P. J. et al. (Biochem. Biophys. Res. Commun. 80:849 (1978)). After 30 minutes at 4° C., the wells were washed twice with 200 μl of binding buffer and the cell layer was solubilized by adding 100 μl of 0.1 N NaOH. This and a 100 μl wash were counted in a Beckman 5500 gamma counter. The specific counts per minute bound was calculated as [cpm with monoclonal antibody]-[cpm with X63]. All steps, including induction with specific reagents, were carried out in quadruplicate.

[4] = system: ICAM-1 expression on human umbilical vein endothelial cells (HUVEC); experiment: Radioimmune assay of ICAM-1 expression with ^125I RR1/1, HUVEC; assay type: cell-based; conditions: for ^125I Specifically bound (CPM), HUVEC / fold of control ICAM-1 expression, HUVEC: 16 hr; for ^125I Specifically bound (CPM), HUVEC: rIL-1 beta 100 ng/ml, rIL-1 alpha 50 ng/ml, rTNF alpha 50 ng/ml, LPS 10 μg/ml, rIFN gamma 10 ng/ml, polymyxin B 10 μg/ml, control 603 ± 11; for fold of control ICAM-1 expression, HUVEC: same concentrations as CPM; for increase of ICAM-1 expression on HUVEC: IL-1 beta 100 ng/ml, rTNF 50 ng/ml, Interferon-gamma 10,000 U/ml
Protocol: (§2) In order to measure ICAM-1 expression, a radioimmune assay was developed. In this assay, purified RR1/1 was iodinated using iodogen to a specific activity of 10 μCi/μg. Endothelial cells were grown in 96 well plates and treated as described for each experiment. The plates were cooled at 4° C. by placing in a cold room for 0.5-1 hr, not immediately on ice. The monolayers were washed 3× with cold complete media and then incubated 30 m at 4° C. with ^125I RR1/1. The monolayers were then washed 3× with complete media. The bound 125, was released using 0.1 N NaOH and counted. The specific activity of the ^125I RR1/1 was adjusted using unlabeled RR1/1 to obtain a linear signal over the range of antigen densities encountered in this study. Non-specific binding was determined in the presence of a thousand fold excess of unlabeled RR1/1 and was subtracted from total binding to yield the specific binding.
(§3) Upregulation of ICAM-1 expression on HVEC and HSVEC-HUVEC or HSVEC were seeded into 96 well plates at 1:3 from a confluent monolayer and allowed to grow to confluence. Cells were then treated with the indicated materials or media for 16 hr and the RIA done as in methods. All points were done in quadruplicate.

[5] = system: ICAM-1 expression on human saphenous vein endothelial cells (HSVEC); experiment: Radioimmune assay of ICAM-1 expression with ^125I RR1/1, HSVEC; assay type: cell-based; conditions: for ^125I Specifically bound (CPM), HSVEC / fold of control ICAM-1 expression, HSVEC: 16 hr; for ^125I Specifically bound (CPM), HSVEC: rIL-1 beta 100 ng/ml, rTNF alpha 50 ng/ml, LPS 10 μg/ml, rIFN gamma 10 ng/ml, control 1132 ± 31; for fold of control ICAM-1 expression, HSVEC: same concentrations as CPM; for increase of ICAM-1 expression on HSVEC: IL-1 beta 100 ng/ml, rTNF 50 ng/ml, Interferon-gamma 10,000 U/ml
Protocol: as §2, §3

[6] = system: HLA-A,B,C expression on human dermal fibroblasts; experiment: ^125I goat anti-mouse IgG binding assay, anti-HLA-A,B,C, dermal fibroblasts; assay type: cell-based
Protocol: as §1

ICAM-1-LFA-1 adhesion = ICAM-1-LFA-1 adhesion (Homo sapiens, UniProt P05107+P05362+P20701); conditions: peptides; cited from earlier work
[7] = cycloheximide 20 μg/ml, actinomycin D 10 μM
[8] = cells treated with IFN-γ (10 U/ml) (18 hr), alone or plus the inhibitor named (cycloheximide 20 μg/ml, actinomycin D 10 μM)
[9] = cells treated with IFN-γ (10 U/ml) (18 hr), alone or plus the inhibitor named

ICAM-1-LFA-1 adhesion, sequence (P05362 28-532): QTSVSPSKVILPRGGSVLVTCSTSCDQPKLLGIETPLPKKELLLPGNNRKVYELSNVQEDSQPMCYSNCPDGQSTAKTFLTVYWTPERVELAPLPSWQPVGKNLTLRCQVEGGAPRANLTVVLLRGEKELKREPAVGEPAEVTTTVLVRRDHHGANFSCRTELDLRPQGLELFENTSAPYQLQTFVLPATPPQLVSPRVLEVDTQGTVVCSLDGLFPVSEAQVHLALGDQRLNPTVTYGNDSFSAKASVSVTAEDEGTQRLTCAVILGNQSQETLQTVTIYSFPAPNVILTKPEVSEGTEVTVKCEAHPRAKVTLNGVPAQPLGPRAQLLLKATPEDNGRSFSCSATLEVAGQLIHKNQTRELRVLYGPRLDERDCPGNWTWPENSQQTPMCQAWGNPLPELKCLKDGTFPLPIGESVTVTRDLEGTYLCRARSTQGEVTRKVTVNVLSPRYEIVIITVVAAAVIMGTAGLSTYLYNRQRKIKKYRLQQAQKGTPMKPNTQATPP
ICAM-1-LFA-1 adhesion, sequence (P20701 26-1170): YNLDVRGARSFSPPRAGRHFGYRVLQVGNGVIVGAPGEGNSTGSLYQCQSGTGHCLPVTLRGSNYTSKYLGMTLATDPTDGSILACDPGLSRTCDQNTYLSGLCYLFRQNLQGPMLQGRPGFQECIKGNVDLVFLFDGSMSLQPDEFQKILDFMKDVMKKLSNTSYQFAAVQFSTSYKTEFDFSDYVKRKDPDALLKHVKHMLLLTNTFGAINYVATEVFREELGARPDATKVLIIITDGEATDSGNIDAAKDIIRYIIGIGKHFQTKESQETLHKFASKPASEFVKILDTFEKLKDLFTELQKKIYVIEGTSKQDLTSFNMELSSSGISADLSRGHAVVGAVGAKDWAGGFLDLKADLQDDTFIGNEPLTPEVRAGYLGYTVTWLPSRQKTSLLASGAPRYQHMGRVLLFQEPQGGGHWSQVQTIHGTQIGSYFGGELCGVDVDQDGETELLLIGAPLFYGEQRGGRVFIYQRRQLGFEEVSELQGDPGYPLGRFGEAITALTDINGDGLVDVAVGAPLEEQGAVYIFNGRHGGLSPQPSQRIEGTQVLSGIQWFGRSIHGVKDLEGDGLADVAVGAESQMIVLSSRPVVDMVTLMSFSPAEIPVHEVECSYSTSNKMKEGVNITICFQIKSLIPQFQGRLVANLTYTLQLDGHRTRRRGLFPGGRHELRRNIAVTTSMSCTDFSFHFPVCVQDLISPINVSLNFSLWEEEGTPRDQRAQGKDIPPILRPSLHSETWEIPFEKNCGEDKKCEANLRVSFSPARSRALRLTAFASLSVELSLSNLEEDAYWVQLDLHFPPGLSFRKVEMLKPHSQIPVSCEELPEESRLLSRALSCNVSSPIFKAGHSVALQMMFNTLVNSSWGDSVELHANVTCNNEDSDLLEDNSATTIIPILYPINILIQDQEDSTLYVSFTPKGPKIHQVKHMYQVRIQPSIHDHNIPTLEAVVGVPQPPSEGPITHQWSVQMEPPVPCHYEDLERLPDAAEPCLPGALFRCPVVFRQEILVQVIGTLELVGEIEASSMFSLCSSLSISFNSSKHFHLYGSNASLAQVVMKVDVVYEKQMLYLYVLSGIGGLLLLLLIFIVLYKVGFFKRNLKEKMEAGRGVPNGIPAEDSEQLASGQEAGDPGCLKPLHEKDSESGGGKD
ICAM-1-LFA-1 adhesion, sequence (P05107 23-769): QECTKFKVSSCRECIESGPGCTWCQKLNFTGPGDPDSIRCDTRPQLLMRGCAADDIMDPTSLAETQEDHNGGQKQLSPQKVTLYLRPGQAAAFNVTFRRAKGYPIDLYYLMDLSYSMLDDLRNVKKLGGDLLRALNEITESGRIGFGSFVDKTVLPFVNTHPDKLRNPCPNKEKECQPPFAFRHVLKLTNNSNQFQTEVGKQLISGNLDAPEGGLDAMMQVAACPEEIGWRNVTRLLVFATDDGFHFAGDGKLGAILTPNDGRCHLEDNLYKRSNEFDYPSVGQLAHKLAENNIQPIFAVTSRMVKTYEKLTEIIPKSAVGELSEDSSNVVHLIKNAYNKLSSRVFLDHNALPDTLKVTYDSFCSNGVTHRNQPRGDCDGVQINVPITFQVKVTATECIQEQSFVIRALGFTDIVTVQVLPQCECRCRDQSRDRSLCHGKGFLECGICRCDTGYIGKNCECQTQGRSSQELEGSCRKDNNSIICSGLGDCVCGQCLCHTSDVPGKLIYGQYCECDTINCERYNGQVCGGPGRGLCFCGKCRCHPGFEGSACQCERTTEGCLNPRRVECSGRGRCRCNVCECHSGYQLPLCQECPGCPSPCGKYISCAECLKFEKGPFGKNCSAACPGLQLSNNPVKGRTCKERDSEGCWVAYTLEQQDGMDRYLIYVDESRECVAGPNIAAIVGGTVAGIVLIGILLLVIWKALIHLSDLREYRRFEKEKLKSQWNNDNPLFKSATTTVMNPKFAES

Compound: [Mg] [magnesium]
- lowest concentration supporting PMA-induced JY cell aggregation ([1]; 1.25 mM calcium ions added to the medium): 0.02 millimolar
- lowest concentration supporting PMA-induced JY cell aggregation ([1]; medium free of calcium ions): 0.3 mM

Compound: C[C@@H]1C[C@H]2[C@@H]3CCC4=CC(=O)C=C[C@]4(C)[C@@]3(F)[C@@H](O)C[C@]2(C)[C@@]1(O)C(=O)CO [Dex, Dexamethasone]
- inhibition at 0.05 µg/mL ([2]; Homo sapiens, PBMC): 59%
- ^3HT Incorporation (CPM) ([2]; no inhibitor 34,199): 14,158 CPM

Compound: Cc1c2oc3c(C)ccc(C(=O)N[C@@H]4C(=O)N[C@H](C(C)C)C(=O)N5CCC[C@H]5C(=O)N(C)CC(=O)N(C)[C@@H](C(C)C)C(=O)O[C@@H]4C)c3nc-2c(C(=O)N[C@@H]2C(=O)N[C@H](C(C)C)C(=O)N3CCC[C@H]3C(=O)N(C)CC(=O)N(C)[C@@H](C(C)C)C(=O)O[C@@H]2C)c(N)c1=O [actinomycin D] (I: T[dV]P[Sar][NMeV] / II: T[dV]P[Sar][NMeV]; ester I:1-I:C, II:1-II:C; linker I:N-II:N via Actinocin(9to1))
- effect on interleukin 1 and gamma interferon induced ICAM-1 expression on fibroblasts [3, 7]: abolish the effects

Compound: rIFN gamma: recombinant gamma interferon
- ^125I Specifically bound (CPM), HUVEC [4]: 3120 ± 308 CPM
- fold of control ICAM-1 expression, HUVEC [4]: 5.2x
- increase of ICAM-1 expression on HUVEC [4]: 5.2 fold
- ^125I Specifically bound (CPM), HSVEC [5]: 4002 ± 664 CPM
- fold of control ICAM-1 expression, HSVEC [5]: 3.5x
- increase of ICAM-1 expression on HSVEC [5]: 3.5 fold
- ^125I Goat Anti-Mouse IgG Specifically Bound (cpm), anti-ICAM-1 [3, 8]: 4659 ± 109 cpm
- half-life for ICAM-1 induction ([3]; human dermal fibroblasts, 10 U/ml): 3.75 h
- ^125I Goat Anti-Mouse IgG Specifically Bound (cpm), anti-HLA-A,B,C [6, 9]: 23675 ± 500 cpm

Compound: cycloheximide
- ^125I Goat Anti-Mouse IgG Specifically Bound (cpm), anti-ICAM-1 [3, 8]: 1461 ± 59 cpm
- ^125I Goat Anti-Mouse IgG Specifically Bound (cpm), anti-ICAM-1 ([3]; cells treated with IL 1 (10 U/ml) (4 hr), alone or plus the inhibitor named (cycloheximide 20 μg/ml, actinomycin D 10 μM, tunicamycin 2 μg/ml)): 1619 ± 381 cpm
- effect on interleukin 1 and gamma interferon induced ICAM-1 expression on fibroblasts [3, 7]: abolish the effects
- ^125I Goat Anti-Mouse IgG Specifically Bound (cpm), anti-ICAM-1 ([3]; no cytokine, Control (4 hr) 1524 ± 140, cycloheximide 20 μg/ml, actinomycin D 10 μM, tunicamycin 2 μg/ml, mean ± SD): 1513 ± 210 cpm
- ^125I Goat Anti-Mouse IgG Specifically Bound (cpm), anti-HLA-A,B,C [6, 9]: 10675 ± 800 cpm
- ^125I Goat Anti-Mouse IgG Specifically Bound (cpm), anti-HLA-A,B,C ([6]; cells treated with IL 1 (10 U/ml) (4 hr), alone or plus the inhibitor named): 12676 ± 446 cpm
- ^125I Goat Anti-Mouse IgG Specifically Bound (cpm), anti-HLA-A,B,C ([6]; no cytokine, Control (4 hr) 11928 ± 600, cycloheximide 20 μg/ml, actinomycin D 10 μM, tunicamycin 2 μg/ml, mean ± SD): 10678 ± 471 cpm

Compound: GRGESP
- inhibition of ICAM-1-LFA-1 adhesion (ICAM-1-LFA-1 adhesion): failure

Compound: rIL-1 beta: recombinant IL-1 beta
- ^125I Specifically bound (CPM), HUVEC [4]: 5680 ± 633 CPM
- fold of control ICAM-1 expression, HUVEC [4]: 9x
- increase of ICAM-1 expression on HUVEC [4]: 9 fold
- half-maximal increase of ICAM-1 expression ([4]; endothelial cells (HUVEC and HSVEC)): 15 ng/mL
- ^125I Specifically bound (CPM), HSVEC [5]: 8320 ± 766 CPM
- fold of control ICAM-1 expression, HSVEC [5]: 7.3x
- increase of ICAM-1 expression on HSVEC [5]: 7.3 fold

Compound: GRGDSP
- inhibition of ICAM-1-LFA-1 adhesion (ICAM-1-LFA-1 adhesion): failure
